Patent US7019034B2, “Compositions and methods for reducing serum glucose and triglyceride levels in diabetic mammals” (Allergan, Inc., priority 2003, dated 2006)

How the values were obtained:
[1] = biological target: T1, RXRα (Homo sapiens, UniProt P19793); assay: holoreceptor transactivation assay, RXRα; assay type: cell-based
T1 construct: expressed in transfected cells
T1 sequence (P19793 1-462): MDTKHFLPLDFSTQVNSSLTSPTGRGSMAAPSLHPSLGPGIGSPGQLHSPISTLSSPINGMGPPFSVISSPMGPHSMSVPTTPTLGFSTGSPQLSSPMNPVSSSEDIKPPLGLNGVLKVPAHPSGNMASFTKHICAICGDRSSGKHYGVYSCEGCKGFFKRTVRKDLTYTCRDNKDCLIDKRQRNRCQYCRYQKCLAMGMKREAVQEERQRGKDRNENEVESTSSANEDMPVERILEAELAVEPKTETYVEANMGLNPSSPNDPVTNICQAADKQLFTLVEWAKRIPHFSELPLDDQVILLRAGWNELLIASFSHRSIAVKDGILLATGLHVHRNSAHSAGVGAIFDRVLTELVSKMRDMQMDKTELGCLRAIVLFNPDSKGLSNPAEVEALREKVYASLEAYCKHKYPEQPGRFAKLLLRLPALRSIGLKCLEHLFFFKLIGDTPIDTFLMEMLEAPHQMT
Description: A holoreceptor transactivation assay and a ligand binding assay which measure the antagonist/agonist like activity of the compounds of the invention, or their ability to bind to the several retinoid receptor subtypes, respectively, are described in published PCT Application No. WO WO93/11755 (particularly on pages 30–33 and 37–41) published on Jun. 24, 1993, the specification of which is also incorporated herein by reference. […] The results obtained in this assay are expressed in EC50 numbers, as they are also in the chimeric receptor transactivation assay. The results of the ligand binding assay are expressed in Ki numbers. (See Cheng et al. Biochemical Pharmacology Vol. 22 pp 3099–3108, expressly incorporated herein by reference.)
(§1) Particularly, the transactivation data pertaining to activation of the RAR receptors were obtained in the chimeric assay, and the transactivation data pertaining to the activation of RXR receptors were obtained in the holoreceptor assay.
(§2) In Table 1 NA stands for not active at all as an agonist. ND stands for not determined. The first row of numbers pertaining to each compound is the measured EC50 number. […] The third row of numbers pertaining to each compound is the binding Ki number.

[2] = biological target: T2, RXRγ (UniProt P28705); assay: holoreceptor transactivation assay, RXRγ; assay type: cell-based
T2 sequence (P28705 1-463): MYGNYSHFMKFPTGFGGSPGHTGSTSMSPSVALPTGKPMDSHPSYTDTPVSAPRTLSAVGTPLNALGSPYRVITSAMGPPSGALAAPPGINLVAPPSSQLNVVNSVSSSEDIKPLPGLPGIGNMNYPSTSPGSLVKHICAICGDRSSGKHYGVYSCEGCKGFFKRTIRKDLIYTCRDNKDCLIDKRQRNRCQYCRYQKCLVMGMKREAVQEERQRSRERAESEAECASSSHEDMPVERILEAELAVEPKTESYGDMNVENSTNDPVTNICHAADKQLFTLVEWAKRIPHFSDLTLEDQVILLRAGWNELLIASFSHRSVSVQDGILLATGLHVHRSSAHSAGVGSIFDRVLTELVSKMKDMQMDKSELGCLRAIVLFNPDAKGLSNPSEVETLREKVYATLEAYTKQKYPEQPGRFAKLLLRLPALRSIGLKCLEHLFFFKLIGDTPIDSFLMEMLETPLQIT
Description: The results obtained in this assay are expressed in EC50 numbers, as they are also in the chimeric receptor transactivation assay. The results of the ligand binding assay are expressed in Ki numbers.
as §1, §2

[3] = system: diabetic db/db mice; assay: serum glucose in diabetic db/db mice, 7 days oral dosing; assay type: in vivo; settings: for Glucose: 50 mg/kg once daily oral gavage, mean +/- SD
Protocol: Effects of RXR agonists on serum glucose and triglyceride were studied in diabetic db/db mice. […] Briefly, animals were dosed once daily by oral gavage using corn oil vehicle for a period of 7 consecutive days. Serum samples were collected on day 1 (first day of dosing) and day 7 at hour 0 (immediately prior to dosing) and hour 3 (approximately 3 hours after dosing). Serum glucose and triglyceride levels of these samples were measured as described in the reference manuals: Glucose/HK. Boehringer Mannheim Corporation, 9115 Hague Road, Indianapolis, Ind., USA and Triglycerides/GPO. Roche Diagnostics Corporation, 9115 Hague Road, Indianapolis, Ind., USA, expressly incorporated herein. Only those animals with glucose levels of higher than 300 mg/dl at 0 hour on day 1 were considered as diabetic and included in data analysis.
A measured amount of dosing solution was withdrawn into a metal feeding tube attached to a marked syringe. Animals were restrained by grasping of their back skin while the feeding tube was gently inserted into their mouth and into esophagus. A fixed amount of the dosing solution was displaced into the esophagus/stomach of the animal by pushing the plunger of the syringe. Serum samples were collected from the retro-orbital sinus while the animals were anesthetized. These samples were analyzed by using commercially available kits from Boehringer Manheim for their glucose levels and Roche Diagnostics for their triglyceride levels in a Boehringer Manheim Hatachi Clinical Chemistry Analyzer.
For glucose assay, an enzymatic reaction using hexokinase and glucose-6-phosphodehydrogenase to catalyze glucose to gluconate-6phosphate and NADPH was employed. The amount of NADPH formed during these reactions was equivalent to the amount of glucose in the serum and was measured with a spectrophotometer. For triglycerides, a series of enzymatic reactions which included lipase, glycerol kinase and glycerol phosphate oxidase to formed dihydroacetone phosphate and peroxidase. The peroxidase produced catalyzed a reaction between peroxide and 4-aminophenazone and 4-chlorophenol in a Trinder reaction to generate a color change. This color change was measured by a spectrophotometer and reflected the amount of triglyceride in the sample.

EC50 ([1]; NA = not active at all as an agonist, read-out: RXR Trans. EC50 α): 0.8 nM | RXR α efficacy in percentage as compared to the standard compound ([1]; number in brackets): 17% | EC50 ([2]; NA = not active at all as an agonist, read-out: RXR Trans. EC50 γ): 9 nM | RXR γ efficacy in percentage as compared to the standard compound ([2]; number in brackets): 18%
SMILES: CCOc1cc2c(cc1\C(CC)=C(F)/C=C/C(C)=C/C(=O)O)C(C)(C)CCC2(C)C [Compound 2, (2E,4E,6E)-7-(3-Ethoxy-5,5,8,8-tetramethyl-5,6,7,8-tetrahydronaphthalen-2-yl)-6-fluoro-3-methylnona-2,4,6-trienoic acid]
Glucose ([3]; Day 1, 0 hr (immediately prior to dosing)): 529 ± 123 mg/dL | Glucose ([3]; Day 1, 3 hr): 436 ± 127 mg/dL | Glucose ([3]; Day 7, 0 hr): 414 ± 105 mg/dL | Glucose ([3]; Day 7, 3 hr): 350 ± 140 mg/dL | effect on serum glucose in diabetic mouse (in words) ([3]; mouse, in vivo): capable of lowering serum glucose
